We go through 39 compounds from patent publication US7576076B2, “Modified pyrimidine glucocorticoid receptor modulators” (Corcept Therapeutics, Inc., priority 2004, dated 2009).

What is called Ki is the dissociation constant of the complex between target and ligand, obtained from inhibition or displacement.

Where two headings read alike, the source gives them in different places.

Test [1] addresses T1, human recombinant glucocorticoid receptor (Homo sapiens, UniProt P04150).
T1 construct: This GR was a full-length steroid hormone receptor; host or cells: recombinant baculovirus-infected insect cells
T1 sequence (P04150 1-777): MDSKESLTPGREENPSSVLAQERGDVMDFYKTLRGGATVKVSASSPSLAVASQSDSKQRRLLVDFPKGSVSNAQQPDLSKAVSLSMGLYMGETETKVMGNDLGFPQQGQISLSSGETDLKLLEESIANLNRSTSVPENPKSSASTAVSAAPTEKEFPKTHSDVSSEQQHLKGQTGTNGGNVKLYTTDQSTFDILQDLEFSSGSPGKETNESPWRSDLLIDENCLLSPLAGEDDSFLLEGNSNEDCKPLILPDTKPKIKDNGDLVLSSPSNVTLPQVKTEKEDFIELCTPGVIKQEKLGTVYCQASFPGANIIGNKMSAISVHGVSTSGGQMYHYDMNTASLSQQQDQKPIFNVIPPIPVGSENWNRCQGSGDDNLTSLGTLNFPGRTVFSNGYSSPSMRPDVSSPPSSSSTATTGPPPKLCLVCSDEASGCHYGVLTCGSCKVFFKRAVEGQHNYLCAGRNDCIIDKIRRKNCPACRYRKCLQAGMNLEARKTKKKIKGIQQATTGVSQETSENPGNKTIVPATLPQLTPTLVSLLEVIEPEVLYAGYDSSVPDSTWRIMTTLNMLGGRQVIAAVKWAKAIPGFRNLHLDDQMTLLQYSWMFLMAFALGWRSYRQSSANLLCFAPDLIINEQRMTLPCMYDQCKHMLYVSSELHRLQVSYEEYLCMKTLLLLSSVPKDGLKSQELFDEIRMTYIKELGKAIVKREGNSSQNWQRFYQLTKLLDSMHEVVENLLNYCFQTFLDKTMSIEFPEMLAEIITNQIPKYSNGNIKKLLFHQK
Nature of the test: Glucocorticoid receptor binding displacement assay with 3H-dexamethasone. The protocol:
The source of the receptor was recombinant baculovirus-infected insect cells. This GR was a full-length steroid hormone receptor likely to be associated with heat-shock and other endogenous proteins.
For the Primary Screen, test compounds were tested at 1 μM in duplicate. These compounds were diluted from 10 mM stock in 100% DMSO. After dilution to 100 μM, 5 μl were added to 245 μl assay buffer to obtained 2 μM compound and 2% DMSO.
For the IC50 determinations, test compounds were tested at 6 concentrations in duplicate (concentration range depends on % inhibition binding that was obtained in the Primary Screen,). Test compounds were diluted from 10 mM stock in 100% DMSO. The tested solutions were prepared at 2×final assay concentration in 2% DMSO/assay buffer.
All reagents and the assay plate were kept on ice during the addition of reagents. […] After the additions, the incubation mixture was mixed and incubated for 2.5 hrs at 4° C.
After 2.5 hrs incubation, unbound counts were removed with dextran coated charcoal (DCC) as follows: 25 μl of DCC solution (10% DCC in assay buffer) was added to all wells and mixed (total volume 225 μl). The plate was centrifuged at 4000 rpm for 10 minutes at 4° C. 75 μl of the supernatants (i.e. ⅓ of total volume) was carefully pipetted into an optiplate. 200 μl of scintillation cocktail were added (Microscint-40, Packard Bioscience. B.V.). The plate was vigorously shaken for approx. 10 minutes and counted on Topcount.
The IC50 values were converted to Ki (the inhibition constant) using the Cheng-Prusoff equation.
Reagents: Assay buffer: 10 mM potassium phosphate buffer pH 7.6 containing 5 mM DTT, 10 mM sodium molybdate, 100 μM EDTA and 0.1% BSA.

The target in test [2] is T2, endogenous glucocorticoid receptors in SW1353/MMTV-5 cells (Homo sapiens, UniProt P04150).
T2 construct: contains endogenous glucocorticoid receptors; endogenous in cells; host or cells: SW1353/MMTV-5 (human chondrosarcoma, stably transfected with the pMAMneo-Luc reporter only)
T2 sequence (P04150 1-777): T1 sequence (P04150 1-777)
Kind of test: GR functional assay using SW1353/MMTV-5 cells (luciferase reporter). In kind it is cell-based. The protocol:
SW1353/MMTV-5 is an adherent human chondrosarcoma cell line that contains endogenous glucocorticoid receptors. It was transfected with a plasmid (pMAMneo-Luc) encoding firefly luciferase located behind a glucocorticoid-responsive element (GRE) derived from a viral promoter (long terminal repeat of mouse mammary tumor virus). A stable cell line SW1353/MMTV-5 was selected with geneticin, which was required to maintain this plasmid.
SW1353/MMTV-5 cells were distributed in 96-well plates and incubated in medium (without geneticin) for 24 hrs (in the absence of CO2).
Background: Reporter assays use an easily measured gene product as a stand-in for the process of interest.

Where [3] appears, read: displacement of 2.5 nM 3H-dexamethasone, IC50 converted to Ki by Cheng-Prusoff, read-out: Ki.

With `Cn1c(=O)[nH]c(N2CCC(Cc3ccccc3)CC2)c(Cc2ccccc2Br)c1=O` [Compound 3], the inhibitory constant (Ki) in test [1] (setting [3]) is greater than 0.1 µM. As for `O=c1[nH]c(N2CCC(Cc3ccccc3)CC2)c(Cc2cccc(Cl)c2)c(=O)n1-c1ccccc1` [Compound 25], in test [1] (setting [3]), the Ki was greater than 0.1 µM. Take `Cn1c(=O)[nH]c(N2CCC(Oc3ccccc3)CC2)c(Cc2ccccc2)c1=O` [Compound 37]: the Ki in test [1] (Ki) is 0.01 to 0.1 µM. As for `N#Cc1cccc(Cc2c(N3CCC(c4ccccc4)CC3)[nH]c(=O)[nH]c2=O)c1` [Compound 48], the Ki in test [1] (setting [3]) fell in the range of 0.01 to 0.1 µM. `Cn1c(=O)[nH]c(N2CCC(Cc3ccccc3)CC2)c(Cc2ccccc2)c1=O` [Compound 5]: the Ki in test [1] (setting [3]) lay within 0.01 to 0.1 µM.

Consider `Cn1c(=O)[nH]c(N2CCC(O)(Cc3ccccc3)CC2)c(Cc2ccccc2)c1=O` [Compound 19], for which the Ki in test [1] (setting [3]) is greater than 0.1 µM. Still for that read-out and setting: with `CC(C)=CCc1c(N2CCC(Cc3ccccc3)CC2)[nH]c(=O)n(C)c1=O` [Compound 11] the figure was greater than 0.1 µM. With `Cn1c(=O)[nH]c(N2CCC(Cc3ccccc3)CC2)c(Cc2ccc(F)cc2F)c1=O` [Compound 6], the Ki in test [1] (setting [3]) lay in the range of 0.01 to 0.1 µM. `Cn1c(=O)[nH]c(N2CCN(C(c3ccccc3)c3ccccc3)CC2)c(Cc2ccccc2)c1=O` [Compound 21]: the Ki in test [1] (setting [3]) was greater than 0.1 µM. Turning to `O=c1[nH]c(N2CCC(c3ccccc3)CC2)c(Cc2ccccc2)c(=O)[nH]1` [Compound 31], the Ki in test [1] (setting [3]) is less than 0.01 µM; in test [2], 0.01 to 0.1 µM.

As for `COc1ccccc1C1CCN(c2[nH]c(=O)[nH]c(=O)c2Cc2ccccc2)CC1` [Compound 41], the Ki in test [1] (setting [3]) is less than 0.01 µM. For `Cn1c(=O)[nH]c(N2CCC(Cc3ccccc3)CC2)c(Cc2ccccc2Br)c1=O` [Compound 4], the Ki in test [1] (setting [3]) fell in the range of 0.01 to 0.1 µM. Consider `O=c1[nH]c(N2CCC(c3c[nH]c4ccccc34)CC2)c(Cc2ccccc2)c(=O)[nH]1` [Compound 42], for which the Ki in test [1] (setting [3]) lay in the range of 0.01 to 0.1 µM.

Regarding `Cn1c(=O)[nH]c(N2CCC(Cc3ccccc3)CC2)c(Cc2ccc(F)cc2Cl)c1=O` [Compound 8], in test [1] (setting [3]), the Ki was greater than 0.1 µM. Turning to `Cn1c(=O)[nH]c(N2CCC(Cc3ccccc3)CC2)c(Cc2ccccc2-c2ccccc2)c1=O` [Compound 14], the Ki in test [1] (setting [3]) is greater than 0.1 µM. For `CC(C)Cn1c(=O)[nH]c(N2CCC(Cc3ccccc3)CC2)c(Cc2cccc(Cl)c2)c1=O` [Compound 26], the Ki in test [1] (setting [3]) is greater than 0.1 µM.

Take `Cn1c(=O)[nH]c(N2CCC(Cc3ccccc3)CC2)c(Cc2ccc(Br)cc2)c1=O` [Compound 7]: the Ki in test [1] (setting [3]) fell in the range of 0.01 to 0.1 µM.

With `CCn1c(=O)[nH]c(N2CCC(Cc3ccccc3)CC2)c(Cc2cccc(Cl)c2)c1=O` [Compound 29], in test [1] (setting [3]), the Ki was greater than 0.1 µM. Turning to `Cn1c(=O)[nH]c(N2CCC(c3ccccc3)CC2)c(Cc2ccccc2)c1=O` [Compound 17], the Ki in test [1] (setting [3]) lay within 0.01 to 0.1 µM. Take `O=c1[nH]c(N2CCC(c3ccccc3)CC2)c(Cc2cccc(Cl)c2)c(=O)[nH]1` [Compound 35]: the values for the Ki in test [1] (setting [3]) and in test [2] were less than 0.01 µM and 0.01 to 0.1 µM, respectively. Regarding `Cn1c(=O)[nH]c(N2CCC(Cc3ccccc3)CC2)c(Cc2ccc(C(C)(C)C)cc2)c1=O` [Compound 13], in test [1] (setting [3]), the Ki is greater than 0.1 µM. Turning to `CC(=O)Nc1ccc(C2CCN(c3[nH]c(=O)[nH]c(=O)c3Cc3ccccc3)CC2)cc1` [Compound 46], the Ki in test [1] (setting [3]) lay within 0.01 to 0.1 µM. As for `COc1ccc(C2CCN(c3[nH]c(=O)[nH]c(=O)c3Cc3ccccc3)CC2)cc1` [Compound 40], the Ki in test [1] (setting [3]) lay in the range of 0.01 to 0.1 µM. Consider `O=c1[nH]c(N2CCC(Cc3ccccc3)CC2)c(Cc2cccc(Cl)c2)c(=O)n1Cc1ccccc1` [Compound 24], for which the Ki in test [1] (setting [3]) lay in the range of 0.01 to 0.1 µM. As for `O=c1[nH]c(N2CCC(c3ccccc3)CC2)c(Cc2ccc(Cl)cc2)c(=O)[nH]1` [Compound 36], the results for the Ki in test [1] (setting [3]) and in test [2] were 0.01 to 0.1 µM and greater than 0.1 µM, respectively. For the compound `Cn1c(=O)[nH]c(N2CCC(O)CC2)c(Cc2cccc(C(F)(F)F)c2)c1=O` [Compound 1], the Ki in test [1] (setting [3]) was greater than 0.1 µM. Turning to `O=c1[nH]c(N2CCC(c3ccccc3)CC2)c(Cc2ccccc2Cl)c(=O)[nH]1` [Compound 33], the Ki in test [1] (setting [3]) was less than 0.01 µM; in test [2], 0.01 to 0.1 µM.

For `Cn1c(=O)[nH]c(N2CCN(Cc3ccccc3)CC2)c(Cc2ccccc2)c1=O` [Compound 16], the inhibition constant Ki in test [1] (setting [3]) is greater than 0.1 µM. As to `O=c1[nH]c(N2CCC(c3ccccc3)CC2)c(Cc2cccc(Br)c2)c(=O)[nH]1` [Compound 38], the Ki in test [1] (setting [3]) and in test [2] was 0.01 to 0.1 µM throughout. For the compound `Cn1c(=O)[nH]c(N2CCC(c3ccccc3)CC2)c(Cc2ccccc2Cl)c1=O` [Compound 34], the values for the Ki in test [1] (setting [3]) and in test [2] were 0.01 to 0.1 µM and greater than 0.1 µM, respectively.

As to `O=c1[nH]c(N2CCN(Cc3ccccc3)CC2)c(Cc2ccccc2)c(=O)[nH]1` [Compound 22], the Ki in test [1] (setting [3]) was greater than 0.1 µM. `CCn1c(=O)[nH]c(N2CCC(c3ccccc3)CC2)c(Cc2cccc(Cl)c2)c1=O` [Compound 30]: the Ki in test [1] (setting [3]) is greater than 0.1 µM.

For `COc1cccc(C2CCN(c3[nH]c(=O)[nH]c(=O)c3Cc3ccccc3)CC2)c1` [Compound 39], the Ki in test [1] (setting [3]) was less than 0.01 µM. Regarding `O=c1[nH]c(N2CCC(Cc3ccccc3)CC2)c(Cc2ccccc2)c(=O)[nH]1` [Compound 18], the Ki in test [1] (setting [3]) lay within 0.01 to 0.1 µM. As to `Cc1ccc(Cc2c(N3CCC(Cc4ccccc4)CC3)[nH]c(=O)n(C)c2=O)cc1` [Compound 10], the Ki in test [1] (setting [3]) is 0.01 to 0.1 µM. Regarding `CCOC(=O)N1CCN(c2[nH]c(=O)n(C)c(=O)c2Cc2cccc(C(F)(F)F)c2)CC1` [Compound 2], the Ki in test [1] (setting [3]) is greater than 0.1 µM. As to `Cn1c(=O)[nH]c(N2CCC(c3ccccc3)CC2)c(CCc2ccccc2)c1=O` [Compound 28], the Ki in test [1] (setting [3]) is greater than 0.1 µM.

For the compound `O=c1[nH]c(N2CCC(c3ccccc3)CC2)c(Cc2cccc(Cl)c2)c(=O)n1Cc1ccccc1` [Compound 27], the Ki in test [1] (setting [3]) was greater than 0.1 µM. In the case of `Cn1c(=O)[nH]c(N2CCC(Cc3ccccc3)CC2)c(Cc2ccc(C#N)cc2)c1=O` [Compound 9], the Ki in test [1] (setting [3]) was greater than 0.1 µM.
